Entries after “also recorded” stand apart in the source; their conditions may differ. Like-named read-outs stand apart in the source and are kept apart here. * marks the point of attachment. code Z = not defined here; CHN2 = [N-]=[N+]=C*
How the values were obtained:
[1] = test system: IgG-cleaving activity of S. pyogenes strain AP1 growth medium; assay: Cleavage of IgG in AP1 growth medium with E64 added; assay type: biochemical; conditions: E64 added to the AP1 growth medium, TH medium with 10% human plasma
SpeB = SpeB (Streptococcus pyogenes, UniProt P0C0J0); conditions: cited from earlier work
S. pyogenes [2] = conditions: in vivo; cited from earlier work
S. pyogenes [3] = conditions: in vitro; cited from earlier work
IdeS [4] = assay: Proteinase inhibition assay (IgG cleavage by IdeS, SDS-PAGE); assay type: biochemical, S. pyogenes; conditions: 30 min preincubation, IdeS 0.3 μg/ml
Protocol: Partially purified IdeS (0.3 μg/ml) was incubated with either 20 nM iodoacetic acid, Z-LVG-CHN2 (Björck et al., 1989) at 0.4 mg/ml in 1% DMSO, or E64 (40 μM). The tubes were kept in the dark and incubated for 30 min at room temperature. As controls, IdeS was also kept in phosphate buffered saline (PBS) or in 1% DMSO, the solvent for Z-LVG-CHN2. After 30 min, 5 μl of 10 mg/ml IgG (Sigma) were added, and the volume was adjusted to 100 μl with PBS. Incubation was continued for 60 min at 37° C. The reaction was stopped by the addition of SDS-PAGE sample buffer and samples were analyzed by 12% SDS-PAGE.

papain = target: T1, papain (Carica papaya, UniProt P00784); conditions: cited from earlier work
T1 sequence (P00784 134-345): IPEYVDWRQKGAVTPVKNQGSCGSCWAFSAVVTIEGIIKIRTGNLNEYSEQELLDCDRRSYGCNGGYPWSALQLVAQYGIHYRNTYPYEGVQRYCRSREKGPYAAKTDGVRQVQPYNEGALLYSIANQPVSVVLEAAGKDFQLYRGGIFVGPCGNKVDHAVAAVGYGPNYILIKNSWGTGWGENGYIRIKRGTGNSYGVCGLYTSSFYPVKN

IdeS [5] = assay: Inhibition of IdeS activity by IgG-binding streptococcal proteins; assay type: biochemical, S. pyogenes

| Compound | inhibition of the proteolytic activity of SpeB (SpeB) | inhibition of streptococcal growth (S. pyogenes [2]) | inhibition of streptococcal growth (S. pyogenes [3]) | other results |
| --- | --- | --- | --- | --- |
| CC(C)C[C@H](NC(=O)[C@H]1O[C@@H]1C(=O)O)C(=O)NCCCCN=C(N)N (relative stereo) [E64, trans-epoxysuccinyl-L-leucylamido-(4-Guanidino) butane] | efficiently blocked; also recorded: irreversibly block the proteolytic activity of SpeB | only Z-LVG-CHN2 inhibited streptococcal growth | only Z-LVG-CHN2 inhibited streptococcal growth | inhibition of the cleavage of IgG (31 kDa product) [1]: did not inhibit the cleavage of IgG; inhibition of the activity of IdeS (IgG cleavage) (IdeS [4]; E64 (40 μM)): had no effect on the enzyme; also recorded: not affected |
| O=C(O)CI [iodoacetic acid] |  |  |  | inhibition of the activity of IdeS (IgG cleavage) (IdeS [4]; 20 nM iodoacetic acid): efficiently inhibited the activity of IdeS |
| Z-LVG-CHN2: peptide derivate based on the inhibitory reactive site of cystatin C, carrying a diazomethyl ketone group ({code Z}-Leu-Val-Gly-CHN2; reading uncertain) | irreversibly inhibit; also recorded: irreversibly block the proteolytic activity of SpeB | inhibited streptococcal growth | inhibited streptococcal growth | inhibition of papain (papain): irreversibly inhibit; inhibition of the activity of IdeS (IgG cleavage) (IdeS [4]; Z-LVG-CHN2 at 0.4 mg/ml in 1% DMSO): efficiently inhibited the activity of IdeS; also recorded: is inhibited |
| protein G: streptococcal protein that binds the Cγ2-Cγ3 interphase region of IgG |  |  |  | inhibition of IdeS activity (IdeS [5]): cannot inhibit IdeS activity |
